For orientation: half-life means the time needed for the level to fall by half in the phase considered. A low value points to rapid decline. The Kp is tissue or fluid exposure divided by exposure in the circulation.

From ChEMBL document CHEMBL2390872, “Synthesis and biological evaluation of Esaprazole analogues showing σ1 binding and neuroprotective properties in vitro” (Bioorg Med Chem, 2013) come the findings set out here.

One series in a line: in vitro. Particulars: rat, liver microsomes.
As to `O=C(CCN1C[C@@H]2C[C@H]1CN2)NC1CCCCC1`, the half-life worked out at 45 min.

The molecule `CC(C)(C)CCNC(=O)CN1CCN(C(=O)C2CCCCC2)CC1` displayed a half-life of 21 min.

`O=C(CCN1CCN(C(=O)C2CC2)CC1)NC1CCCCC1`: the half-life is more than 60 min.

As to `O=C(CN1CCN2CCC[C@H]2C1)NC1CCCCC1`, the half-life was determined as 4.2 min.

Regarding `O=C(CN1CCNCC1)NC1CCCCC1` [ESAPRAZOLE], the half-life is more than 60 min.

Molecule `O=C(CN1CCN2CCC[C@@H]2C1)NC1CCCCC1` showed a half-life of 8.2 min.

For `CCN1CCN(CC(=O)N(C)C2CCCC2)CC1C` (racemic), the half-life came to 21 min.

A short description of the next series: in vivo. The following applies: rat, brain/plasma, po, 1600 mg/kg.
Molecule `O=C(CN1CCNCC1)NC1CCCCC1` [ESAPRAZOLE] came in with a Kp at 2 h of 0.25.
